Assay results as given in patent US20120035320A1, “POLYACRIDINE NUCLEIC ACID DELIVERY PEPTIDE COMPLEXES” (University of Iowa Research Foundation, priority 2010, published 2012).
Entries after “also recorded” stand apart in the source; their conditions may differ. Like-named read-outs stand apart in the source and are kept apart here. No end group written: not given here. *: point of attachment. 6‑(9-acridinylamino)hexanoyl = O=C(CCCCCNc1c2ccccc2nc2ccccc12)*; Acr = acridine on the lysine ε-amine; PEG = not defined here

How the values were obtained:
[1] = system: pGL3; assay: thiazole orange fluorophore exclusion assay of polyacridine-melittin peptides; format: binding; details: pGL3, 0.1 μM thiazole orange
Protocol: The relative binding affinity of peptides for DNA was determined by a fluorophore exclusion assay (Rich, D. H., Gesellchen, P. D., Tong, A., Cheung, A., and Buckner, C. K. (1975) Alkylating derivatives of amino acids and peptides. Synthesis of N-maleoylamino acids, [1-(N-maleoylglycyl)cysteinyl]oxytocin, and [1-(N-maleoyl-11-aminoundecanoyl)cysteinyl]oxytocin. Effects on vasopressin-stimulated water loss from isolated toad bladder. J. Med. Chem. 18, 1004-1010). pGL3 (200 μl of 4 μg/ml in 5 mM Hepes pH 7.5 containing 0.1 μM thiazole orange) was combined with 0, 0.05, 0.1, 0.25, 0.35, 0.5, 1, and 2 nmols of peptide in 300 μl of Hepes and allowed to bind at RT for 30 min. Thiazole orange fluorescence was measured using an LS50B fluorometer (Perkin-Elmer, U.K.) by exciting at 498 nm while monitoring emission at 546 nm with the slit widths set at 10 nm. A fluorescence blank of thiazole orange in the absence of DNA was subtracted from all values before data analysis. The data is presented as nmol of peptide per μg of DNA versus the percent fluorescence intensity±the standard deviation determined by three independent measurements.

[2] = system: Erythrocytes; assay: RBC hemolysis assay; format: cell-based, mice; details: for hemolytic activity when combined with pGL3: pH 7.4, peptide DNA polyplex 1.5 nmols and 7.5 μg pGL3
Protocol: Whole blood was obtained from male ICR mice by heart puncture with heparinized 22 G needles and collected in conical tubes containing 10 ml of 0.15 M PBS (pH 7.4) prewarmed to 37° C. Erythrocytes were immediately separated from plasma by centrifugation at 2000 rpm for 2 min, washed three times with 10 ml of PBS, and then diluted to 1.5×10^8 cells/ml. Peptides were prepared at 15 μM and serially diluted to 10-0.01 μM, after which 100 μl was pipetted in triplicate into a MultiScreenHTS BV 96 well plate. Erythrocytes (50 μl, 7.5×10^6 cells) were added to the peptides and incubated at 37° C. for 1 h followed by filtration on a Multiscreen vacuum manifold (Millipore Corporation, Billerica, Mass.). The filtrate was measured for Abs410nm on a Biotech plate reader (Biotech Instruments Incorporated., Winooski, Vt.) and compared to the 100% hemolysis caused by replacing PBS with water. Peptide DNA polyplexes (1.5 nmols and 7.5 μg pGL3) were also assayed for hemolysis as described above.

[3] = system: pGL3; assay: gel band shift assay of acridine PEGs and polyacridine PEG-peptides; format: binding; details: constant stoichiometry of 1 nmol per μg of DNA
Protocol: The samples were loaded onto a 1% agarose gel (50 ml) and electrophoresed in TAE buffer at 80 V for 90 min. […] The samples were applied to a 1% agarose gel and electrophoresed as described above.

[4] = particle size and zeta potential of polyacridine PEG-peptide DNA open polyplexes; format: physicochemical; details: for apparent particle diameter: QELS, 0.2 nmols per μg of DNA or higher
Protocol: Polyacridine PEG-peptide DNA polyplexes were formed by combining 10 μg of pGL3 (in 500 μl of 5 mM Hepes pH 7.4) with an equal volume containing either 1, 2, 4, 8, 12, 16, or 20 nmol of polyacridine PEG-peptide while vortexing. The polyplexes were equilibrated at RT for 30 min prior to analysis of particle size (QELS) and zeta potential using a Brookhaven ZetaPlus (Brookhaven Instruments, Holtsville, N.Y.). The particle size diameter and zeta potential are reported as the mean and standard deviation of ten measurements.

[5] = system: liver; assay: hydrodynamic stimulation and bioluminescence imaging of luciferase expression; format: in vivo, mice; details: tail vein 1 μg pGL3 in complex with 0.5 nmol peptide; HD stimulation 30 min after DNA
Protocol: pGL3 (1 μg) was prepared in a volume of normal saline corresponding to 9 wt/vol % of the mouse's body weight (1.8-2.25 ml based on 20-25 g mice). The DNA dose was administered by tail vein to 4-5 mice in 5 sec according to a published procedure (Liu F, Song Y, Liu D. Hydrodynamics-based transfection in animals by systemic administration of plasmid DNA. Gene Ther 1999; 6: 1258-1266; Zhang G, Budker V, Wolff J A. High levels of foreign gene expression in hepatocytes after tail vein injections of naked plasmid DNA. Human Gene Therapy 1999; 10: 1735-1737). Mice (4-5) were also dosed tail vein with 1 μg of PEGylated polyacridine polyplex in 50 μl of HBM (5 mM Hepes, 0.27 M mannitol, pH 7.4). At times ranging from 5-120 min, a stimulatory hydrodynamic dose of normal saline (9 wt/vol % of the body weight) was administered over 5 sec. At 24 hrs post-DNA dose, mice were anesthetized by 3% isofluorane, then administered an i.p. dose of 80 μl (2.4 mg) of D-luciferin (30 μg/μl in phosphate-buffered saline). At 5 min following the D-luciferin dose, mice were imaged for bioluminescence (BLI) on an IVIS Imaging 200 Series (Xenogen). BLI was performed in a light-tight chamber on a temperature-controlled, adjustable stage while isofluorane was administered by a gas manifold at a flow rate of 3%. Images were acquired at a ‘medium’ binning level and a 20 cm field of view. Acquisition times were varied (1 sec^−1 min) depending on the intensity of the luminescence. The Xenogen system reported bioluminescence as photons/sec/cm^2/seradian in a 2.86 cm diameter region of interest covering the liver. The integration area was transformed to pmols of luciferase in the liver using a previously reported standard curve (Rettig G et al. Quantitative Bioluminscence Imaging of Transgene Expression In Vivo. Analytical Biochemistry 2006; 335: 90-94). The results were determined to be statistically significant (p≦0.05) based on a two-tailed unpaired t-test.

[6] = system: gastrocnemius muscle of ICR male mice; assay: intramuscle-electroporation dosing and bioluminescence imaging; format: in vivo; details: IM-EP
Protocol: Male ICR mice (Harlan), weighing 25-30 g were prepared for IM-EP dosing by anesthetization with an intraperitoneal dose of 200 μl of ketamine/xylazine (20 mg/ml and 2 mg/ml, respectively). The hamstring muscles were sheared and swabbed with 70% ethanol prior to administering a 50 μl dose over 10 sec in normal saline to both gastrocnemius muscles in 2 mice by a 1 ml monoject syringe (1 cc, 28 G×½). After dosing the BTX 2-Needle Array Electrode was inserted into the skin with the electrodes straddling the dosing site. Successive electronic stimulation was generated by the EMC BTX 830, Square-wave Pulse Generator (BTX, Harvard Apparatus) as the power source. At 1 min post-administration of the DNA dose, the pulse generator delivered six successive 100 V pulses over 20 msec with a 100 msec interval between pulses (31).
Luciferase reporter gene expression was quantified by bioluminescence imaging (BLI) at 2-14 days following IM-EP using an IVIS Imaging System 200 Series (Xenogen) (Wu, J. C., Sundaresan, G., Iyer, M., and Gambhir, S. S. (2001) Noninvasive optical imaging of firefly luciferase reporter gene expression in skeletal muscles of living mice. Molecular Therapy: the Journal of the American Society of Gene Therapy 4, 297-306). Mice were anesthetized by isofluorane (2% flow with oxygen) and dosed intramuscularly with 40 μL of 30 mg per ml D-Luciferin (GoldBio). Bioluminescent images were acquired 5 min post substrate administration and acquired for 1 min with a 24.6 cm field of view. The resultant grayscale images with a colormap overlay were analyzed using the Igor Pro 4.09 software (Livinglmage). Luciferase expression is reported as photons/sec/cm^2/steradian within a uniformly defined region of interest.

[7] = RBC hemolysis at pH 5.0, second value of the cell (pH 7.4:5.0), read-out: HL50 (μM) pH 5.0
[8] = RBC hemolysis at pH 7.4, first value of the cell (pH 7.4:5.0), read-out: HL50 (μM) pH 7.4

Compound	EC50 [2, 7] [µM]	EC50 [2, 8] [µM]	hemolytic activity when combined with pGL3 [2]	DNA band shift on agarose gel [3]	further results
CWKKGIGAVLKVLTTGLPALISLIKRKRQQ [Cys-melittin]	0.7	1	maintained their hemolytic activity; also recorded: nearly unchanged	–	thiazole orange displacement, asymptote / equivalence point of fluorescence intensity [1]: approximately 0.5 nmols of peptide per μg of DNA
PEG-Cys-Trp-(Lys(Acr))3: PEG5000 Da-maleimide on Cys of Cys-Trp-Lys3, Lys ε-amines conjugated with 6-(9-acridinylamino) hexanoic acid; SEQ ID NO: 3 (C(PEG 5000 Da maleimide)WK(6‑(9-acridinylamino)hexanoyl)K(6‑(9-acridinylamino)hexanoyl)K(6‑(9-acridinylamino)hexanoyl))	–	–	–	further retarded DNA migration	apparent particle diameter [4]: approximately 200 nm; apparent particle diameter ([4]; listed as PEG-Cys-(Lys(Acr))3): 200 nm; zeta potential over titration ([4]; titrating with 0.1 to 2 nmol per μg of DNA): −15 to −5 mV
PEGylated-SS-(Acr-Arg)4: (Acr-Arg)4-Cys with Cys thiol reacted with 5 kDa PEG-OPSS, reducible disulfide linkage	–	–	–	–	BLI luciferase expression in liver at 24 hr [5]: approximately 10^7 photons/sec/cm^2/sr
PEG-Cys-Trp-(Lys(Acr))4: PEG5000 Da-maleimide on Cys of Cys-Trp-Lys4, Lys ε-amines conjugated with 6-(9-acridinylamino) hexanoic acid; SEQ ID NO: 4 (C(PEG 5000 Da maleimide)WK(6‑(9-acridinylamino)hexanoyl)K(6‑(9-acridinylamino)hexanoyl)K(6‑(9-acridinylamino)hexanoyl)K(6‑(9-acridinylamino)hexanoyl))	–	–	–	further retarded DNA migration	–
(m)GWKKGIGAVLKVLTTGLPALISLIKRKRQQ [Mal-melittin]	4.8	3.84	maintained their hemolytic activity	–	–
(CWKKGIGAVLKVLTTGLPALISLIKRKRQQ)2 [Dimeric-melittin]	1.2	1	–	–	–
PEG-Cys-Trp-(Lys)5: PEGylated Cys-Trp-Lys5 without acridine, SEQ ID NO: 19 (C(PEG)WKKKKK; reading uncertain; also: PEG5000 Da maleimide on Cys, printed as PEG-Cys-Trp-(Lys)5)	–	–	–	unable to cause a band DNA shift	–
CC[C@H](C)[C@H](NC(=O)CN)C(=O)NCC(=O)N[C@@H](C)C(=O)N[C@H](C(=O)N[C@@H](CC(C)C)C(=O)N[C@@H](CCCCN)C(=O)N[C@H](C(=O)N[C@@H](CC(C)C)C(=O)N[C@H](C(=O)N[C@H](C(=O)NCC(=O)N[C@@H](CC(C)C)C(=O)N1CCC[C@H]1C(=O)N[C@@H](C)C(=O)N[C@@H](CC(C)C)C(=O)N[C@H](C(=O)N[C@@H](CO)C(=O)N[C@@H](Cc1c[nH]c2ccccc12)C(=O)N[C@H](C(=O)N[C@@H](CCCCN)C(=O)N[C@@H](CCCNC(=N)N)C(=O)N[C@@H](CCCCN)C(=O)N[C@@H](CCCNC(=N)N)C(=O)N[C@@H](CCC(N)=O)C(=O)N[C@@H](CCC(N)=O)C(N)=O)[C@@H](C)CC)[C@@H](C)CC)[C@@H](C)O)[C@@H](C)O)C(C)C)C(C)C [Melittin, reference compound]	2.3	0.9	nearly unchanged	–	–
Lys(Acr)-Arg-Lys(Acr)-Arg-Lys(Acr)-Arg-Lys(Acr)-Arg-Cys (K(Acr)RK(Acr)RK(Acr)RK(Acr)RC) [poly(Acr-Arg)4-Cys]	> 10	> 10	–	–	thiazole orange displacement, asymptote / equivalence point of fluorescence intensity [1]: approximately 0.4 nmols of peptide per μg of DNA; thiazole orange displacement, asymptote / equivalence point of fluorescence intensity ([1]; listed as (Acr-Arg)4-Cys): 0.35 nmols of peptide per μg of DNA
PEG-Cys-Trp-(Lys(Acr))5: PEG5000 Da-maleimide on Cys of Cys-Trp-Lys5, Lys ε-amines conjugated with 6-(9-acridinylamino) hexanoic acid; SEQ ID NO: 5 (C(PEG 5000 Da maleimide)WK(6‑(9-acridinylamino)hexanoyl)K(6‑(9-acridinylamino)hexanoyl)K(6‑(9-acridinylamino)hexanoyl)K(6‑(9-acridinylamino)hexanoyl)K(6‑(9-acridinylamino)hexanoyl))	–	–	–	complete retardation of DNA migration	luciferase expression at day 2, fold decrease versus pGL3 ([6]; formulation 0.2 nmol per μg of DNA, 1 μg pGL3, mice): 100 fold; luciferase expression at day 2 compared with pGL3 ([6]; open polyplex 2 nmol per μg of DNA, 1 μg pGL3, mice): identical expression levels; luciferase expression at day 2, fold lower than pGL3 ([6]; open polyplex 4 nmol per μg of DNA, 1 μg pGL3, mice): approximately 10 fold; loss in expression across the 14 day sampling period ([6]; open polyplexes 4 nmol per μg of DNA, mice): 2-3 fold; decrease of expression over 14 days ([6]; open polyplexes 0.2 and 2 nmol per μg of DNA, mice): 10 fold; zeta potential asymptote ([4]; at 1 nmol per μg of DNA): −5 mV
